Measurements reported in the supplement of paper PMC10307832.

Legend:
XMD8-85 = compound: CN1CCN(CC1)C2=CC(=C(C=C2)NC3=NC=C4C(=N3)N(C5=CC=CC=C5C(=O)N4C)C)OC [XMD8-85]; assay: relative viability (nuclei count vs DMSO), 5 days (fraction); higher = more cells survive
Procedure, shortened: (§1)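 After an overnight hold at 37 °C, lung cancer cell lines in 1536-well plates were pinned with five library-drug doses (not always all listed), each √10 from the next, on vehicle-anchored plates. The cells stayed 5 days without fresh medium, then a one-step fix, permeabilisation and Hoechst stain preceded 4× imaging and MetaXpress nuclear counts. A plate passed only with control CV under 25% and at least one doubling. Viability is the median, over plates, of treated-well nuclei relative to vehicle-well nuclei.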

4EGI-1 = compound: O=C(O)C(Cc1ccccc1[N+](=O)[O-])=NNc1nc(-c2ccc(Cl)c(Cl)c2)cs1 (mixture of isomers) [4EGI-1]; assay: as above
Procedure, shortened: as §1

Cell Line	relative viability (XMD8-85; 0.08 µM)	relative viability (XMD8-85; 0.253 µM)	relative viability (XMD8-85; 0.8 µM)	relative viability (XMD8-85; 2.53 µM)	relative viability (XMD8-85; 8 µM)	relative viability (4EGI-1; 0.5 µM)	relative viability (4EGI-1; 1.581 µM)	relative viability (4EGI-1; 5 µM)	relative viability (4EGI-1; 15.81 µM)	relative viability (4EGI-1; 50 µM)
NCI-H520	0.99	0.975	1.03	1.04	0.813	1.24	0.952	1.16	0.917	0.64
NCI-H647	0.991	0.912	1.01	1.06	0.758	1.01	–	1.1	0.855	0.446
201T	1	0.983	0.986	0.978	0.757	1.05	0.955	1.05	0.965	0.806
COR-L 105	0.913	0.861	0.836	0.853	0.411	0.91	0.879	0.986	0.644	0.648
IA-LM	0.84	0.923	0.872	0.723	0.489	1.03	0.848	0.923	0.152	0.0847
LCLC-97TM1	0.915	0.991	1.24	1.09	1.05	1.01	–	1.19	0.963	0.632
NCI-H1944	0.873	0.993	1.02	1.22	0.973	1.03	–	0.996	0.738	0.574
EPLC-272H	0.937	1.07	0.885	0.876	0.608	1.07	0.659	1.12	0.713	0.235
NCI-H2342	0.873	1.07	1.02	1.02	1.06	1.13	0.889	0.989	1.03	0.869
NCI-H1648	0.827	0.73	0.7	0.829	0.869	0.831	0.958	0.968	0.808	0.509
NCI-H1437	1	1.01	1.01	0.99	0.747	1.04	0.969	0.947	0.592	0.326
LU99A	0.895	1	1	0.973	0.831	0.989	0.859	0.999	0.885	0.564
NCI-H1993	0.861	0.965	1.01	1.12	0.89	1	0.847	0.908	0.616	0.573
NCI-H838	0.951	1.02	0.997	0.937	0.754	1.03	–	1.02	0.912	0.342
NCI-H322M	0.906	0.937	0.939	0.97	0.621	0.94	–	1.05	0.75	0.5
NCI-H3122	1.09	0.965	1.08	0.972	0.967	0.987	0.918	0.969	0.964	0.683
NCI-H1703	0.934	1.06	1.06	0.967	0.822	1.34	1.08	1.12	0.928	0.571
HCC-15	1.01	1.02	1.08	1.06	0.849	0.982	1.02	1.02	0.947	0.583
ChaGo-K-1	0.953	0.969	0.917	1.06	0.959	0.976	0.762	1.03	0.861	0.616
SW 900	0.791	1.04	0.759	0.861	0.465	1.05	0.755	0.89	0.642	0.213
NCI-H727	0.883	0.9	0.958	0.713	0.62	1.06	0.991	0.909	0.795	0.59
NCI-H596	0.946	0.942	1.03	0.987	0.696	1.19	0.788	1.14	0.954	0.594
NCI-H2347	1.03	0.973	1.04	1.03	0.809	1.14	0.965	1.02	1.03	0.823

Cell Line	relative viability (XMD8-85; 0.08 µM)	relative viability (XMD8-85; 0.253 µM)	relative viability (XMD8-85; 0.8 µM)	relative viability (XMD8-85; 2.53 µM)	relative viability (XMD8-85; 8 µM)	relative viability (4EGI-1; 0.5 µM)	relative viability (4EGI-1; 1.581 µM)	relative viability (4EGI-1; 5 µM)	relative viability (4EGI-1; 15.81 µM)	relative viability (4EGI-1; 50 µM)
NCI-H2126	0.96	1.02	1.03	1.11	0.821	1.05	0.937	1.05	0.837	0.79
HCC-78	1.14	1.02	0.848	0.92	0.512	1.09	0.739	0.994	0.884	0.872
HARA	0.95	0.976	0.902	1.03	0.611	1.07	1	1.07	0.765	0.257
A-427	1.04	1	1.07	1.12	0.74	1.05	0.762	1	0.86	0.254
NCI-H441	1.09	0.92	1.2	1.29	0.801	1.22	0.868	1.13	0.791	0.307
PC-3 [JPC-3]	1.06	1.03	0.993	1.11	0.942	1.01	0.991	1	–	0.691
NCI-H1915	0.975	1	1.01	1.03	0.883	1.02	0.738	1.05	0.972	0.633
HCC-44	1.02	0.948	–	1.02	0.812	0.999	0.507	0.993	0.877	0.695
NCI-H2228	0.894	1.06	1	0.995	0.604	1.26	1.25	0.939	0.951	0.294
LOU-NH91	0.993	0.97	0.939	1.09	0.734	1.02	–	1	0.764	0.751
NCI-H1666	0.965	0.963	0.919	0.971	0.998	1.05	0.942	1.09	0.781	0.436
NCI-H1395	0.893	0.884	0.889	1.01	0.561	1.02	–	1.2	0.929	0.614
NCI-H522	0.94	1.11	0.947	1.09	0.677	1.01	0.878	0.99	0.922	0.69
SK-MES-1	1.03	1.03	0.938	0.951	0.556	1.09	0.944	0.983	0.759	0.691
EKVX	0.966	1.05	1.02	1.19	0.863	1.05	0.746	1.04	0.698	0.859
EBC-1	0.944	1.06	0.937	0.816	0.386	1.11	1.05	1.11	0.726	0.296
HOP-62	1.08	1.06	0.952	1.01	–	1.02	–	1.02	0.999	0.744
NCI-H1734	0.946	0.988	1.11	1.08	0.758	1.06	0.949	1.14	0.831	0.353
LCLC-103H	0.929	1.03	1.05	1.04	0.88	1.01	0.929	1.01	0.972	0.696
EMC-BAC-2	1.04	1.03	0.956	1.01	0.778	1.07	–	1.07	0.976	0.538
COR-L23	1.11	1.07	1.06	1.12	0.886	1.08	0.859	1.11	0.771	0.155
NCI-H460	0.998	1.01	1.02	0.997	0.651	1.03	–	1.06	0.847	0.25
HCC-366	1.03	1.03	1.07	1	0.938	1.02	0.816	1.02	0.983	0.411

Cell Line	relative viability (XMD8-85; 0.08 µM)	relative viability (XMD8-85; 0.253 µM)	relative viability (XMD8-85; 0.8 µM)	relative viability (XMD8-85; 2.53 µM)	relative viability (XMD8-85; 8 µM)	relative viability (4EGI-1; 0.5 µM)	relative viability (4EGI-1; 1.581 µM)	relative viability (4EGI-1; 5 µM)	relative viability (4EGI-1; 15.81 µM)	relative viability (4EGI-1; 50 µM)
NCI-H1755	1.02	1.08	0.96	1.02	1.03	1.04	1.04	0.957	0.896	0.622
NCI-H2087	1.07	0.984	1.09	1.05	0.811	1.24	1.05	0.975	0.694	0.256
NCI-H1650	0.974	0.874	0.946	0.889	0.297	1.12	–	1.03	0.419	0.223
CAL-12T	0.936	1.06	0.871	0.908	0.654	1.03	–	0.963	0.878	0.518
NCI-H1355	0.995	0.941	1.01	1.13	0.749	1.04	0.93	0.948	0.862	0.566
NCI-H2170	1.03	1.09	1.01	1.12	0.993	0.986	0.942	0.992	0.853	0.606
LK-2	0.97	1.08	0.928	0.67	0.616	1.11	–	1.29	1.08	0.854
NCI-H2023	0.837	1.02	0.99	1	0.559	1.27	–	1.1	0.376	0.129
PC-14	0.996	0.906	0.984	1.03	0.587	1.01	–	1.05	0.341	0.395
LXF-289	0.996	1.05	0.997	1.06	0.979	1.03	1.01	0.98	0.864	0.573
NCI-H2009	0.967	0.987	1	0.97	0.605	1.05	1.02	1.07	1.02	0.24
SK-LU-1	0.921	1.07	1.08	1.06	0.96	1.12	1.11	1.14	0.998	0.58
NCI-H23	0.917	0.95	0.982	1	0.72	1.1	–	1.06	1.03	0.298
NCI-H1299	1.06	1.03	1.01	0.98	0.81	1.02	1.01	1.01	1.03	0.828
NCI-H2405	1.02	1.06	1.06	1.01	0.781	1.04	0.819	1.08	1.03	0.984
RERF-LC-KJ	0.992	0.939	1.07	1.13	0.82	1.1	0.629	0.936	0.805	0.637
HCC-827	1.03	1.04	1.01	1.08	1.04	1.02	0.923	1.07	–	0.922
ABC-1	0.879	0.87	1.17	0.952	0.517	1.08	0.819	1.1	0.525	0.195
NCI-H358	0.881	0.914	0.977	0.984	0.691	1.01	0.767	0.998	0.629	0.16
NCI-H650	0.989	1.01	0.948	0.841	0.556	1.12	–	1.03	0.959	0.753
SW 1573	1.02	1.1	1.08	0.982	–	1.24	0.862	1.03	0.673	0.445
NCI-H661	1	1.01	0.963	1.05	0.903	0.975	0.911	0.974	0.583	0.467
UMC-11	1.03	0.982	1.11	0.964	0.739	1.13	1.11	1.01	0.986	0.403
